Source: patent publication US20250361268A1, “NOVEL ANTI-INFLAMMATORY PEPTIDE AND USE THEREOF” (NOVACELL TECHNOLOGY INC., priority 2022, published 2025)
Peptide text beside a SMILES is read from it.

Experiments:
[1] = biological target: T1, FPR1 (Homo sapiens, UniProt P21462); experiment: Change in calcium activity by peptide, FPR1 activation effect; type: cell-based; conditions: calcium activity (Fura-2), graded per Table 3, read-out: EC50 for [Ca^2+] FPR1
T1 sequence (P21462 1-350): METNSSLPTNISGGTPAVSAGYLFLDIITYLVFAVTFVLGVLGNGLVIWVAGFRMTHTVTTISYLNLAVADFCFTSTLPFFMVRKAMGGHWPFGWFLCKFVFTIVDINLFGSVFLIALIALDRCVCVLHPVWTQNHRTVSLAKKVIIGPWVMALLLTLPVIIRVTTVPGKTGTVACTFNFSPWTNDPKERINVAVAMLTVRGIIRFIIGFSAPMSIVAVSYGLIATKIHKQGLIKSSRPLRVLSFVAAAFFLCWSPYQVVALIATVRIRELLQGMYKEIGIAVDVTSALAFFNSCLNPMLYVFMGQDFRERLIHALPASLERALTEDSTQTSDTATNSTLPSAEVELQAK
In short: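 Cells plated at 3×10^5 per well the day before were loaded with Fura-2 for 1 h at 37 °C, then kept 30 min in the dark at room temperature. Peptide-evoked calcium changes were recorded on a FlexStation 3.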

[2] = tested on: RAW264.7 cell line; experiment: Cytokine inhibition ability: LPS-induced cytokine gene expression in RAW264.7 macrophages; type: cell-based, mouse; conditions: grade of reduction rate of gene expression, peptide 100 nM, LPS 200 ng/mL, 6 hours
Method: The present inventors observed the cytokine inhibition ability of the immunomodulatory peptide candidates prepared according to one example of the present invention. Specifically, to confirm whether the peptides reduce inflammatory responses in cells, changes in cytokine gene expression in cells upon inflammation was measured.
The present inventors used a RAW264.7 cell line, that is, mouse macrophages, and used lipopolysaccharide (LPS; Sigma-Aldrich, #L2630), which is the main component of a gram-negative bacterial cell wall, as a material causing an inflammatory response. A peptide that had been dissolved in water at 100 μM was prepared.
In the present experiment, the cells were cultured in a DMEM (Lonza, #BE12-604F) containing 10% FBS and 1% penicillin-streptomycin under conditions of 37° C. and 5% CO2.
The cells were plated in a 24-well plate (Costar, #3603) at a density of 2.5×10^5 cells/well. After 24 hours, the prepared cells were treated with the peptide at 100 nM. After incubation at 37° C. for 30 minutes, to induce inflammation, 200 ng/mL of LPS was treated. After incubation at 37° C. for 6 hours, the cells in a medium-free state were treated with TRIzol™ (Invitrogen, #15596018) to lyse the cells. Through the given experimental method, RNA was obtained, cDNA was produced using a reverse transcriptase (Promega, #M1705). Afterward, a cytokine expression level was measured using SYBR Green (Enzynomics, RT530) and mouse primers of each inflammatory cytokine gene (TNFα, IL-6, and IL-1β).

[3] = biological target: T2, FPR2 (Homo sapiens, UniProt P25090); experiment: Change in calcium activity by peptide (Fura-2) in RBL cells overexpressing FPR2; type: cell-based; conditions: calcium activity (Fura-2), graded per Table 3, read-out: EC50 for [Ca^2+] FPR2
T2 construct: expressed in transfected cells; host or cells: RBL cells (RBL-FPR2)
T2 sequence (P25090 1-351): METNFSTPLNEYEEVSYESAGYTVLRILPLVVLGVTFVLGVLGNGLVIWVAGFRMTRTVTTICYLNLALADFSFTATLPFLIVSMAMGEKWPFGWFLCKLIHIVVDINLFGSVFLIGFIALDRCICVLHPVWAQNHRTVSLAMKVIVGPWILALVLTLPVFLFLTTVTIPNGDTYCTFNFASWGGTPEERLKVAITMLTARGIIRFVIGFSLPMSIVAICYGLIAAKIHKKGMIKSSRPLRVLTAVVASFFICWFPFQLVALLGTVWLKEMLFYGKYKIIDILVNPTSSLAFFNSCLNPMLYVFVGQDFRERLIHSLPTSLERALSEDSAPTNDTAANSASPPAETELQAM
In short: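 Rat basophilic leukemia cells overexpressing FPR2 loaded with Fura-2 (37 °C 1 h, then RT 30 min dark); peptides (0.5 mM stocks in water or 50% DMSO) diluted in HBSS + 20 mM HEPES and added on a plate reader, intracellular Ca2+ change recorded.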

Structure (SMILES)	EC50 [1] [µM]	Cytokine inhibition ability IL-1β [2]	Cytokine inhibition ability IL-6 [2]	Cytokine inhibition ability TNFα [2]	EC50 [3] [µM]
CSCC[C@H](NC(=O)[C@H](CCCNC(=N)N)NC(C)=O)C(=O)N[C@@H](CCCNC(=N)N)C(=O)N[C@@H](Cc1ccc(O)cc1)C(=O)N[C@@H](CCCCN)C(=O)N[C@H](C(=O)N[C@H](CCSC)C(N)=O)C(C)C [Peptide 6] (HELM PEPTIDE1{[ac].R.M.R.Y.K.V.[dM].[am]}$$$$V2.0)	> 10	A (81%-100%)	C (41%-60%)	A (81%-100%)	< 0.01
CSCC[C@H](N)C(=O)N[C@@H](CCCCN)C(=O)N[C@@H](Cc1ccc(O)cc1)C(=O)N[C@@H](CCCCN)C(=O)N[C@H](C(=O)N[C@H](CCSC)C(N)=O)C(C)C [Peptide 17] (HELM PEPTIDE1{M.K.Y.K.V.[dM].[am]}$$$$V2.0)	> 10	B (61%-80%)	D (21%-40%)	B (61%-80%)	< 0.01
CSCC[C@H](NC(C)=O)C(=O)N[C@@H](CCCCN)C(=O)N[C@@H](Cc1ccc(O)cc1)C(=O)N[C@@H](CCCCN)C(=O)N[C@H](C(=O)N[C@H](CCSC)C(N)=O)C(C)C [Peptide 18] (HELM PEPTIDE1{[ac].M.K.Y.K.V.[dM].[am]}$$$$V2.0)	> 10	A (81%-100%)	D (21%-40%)	A (81%-100%)	< 0.01
CCCC(=O)N[C@@H](CCSC)C(=O)N[C@@H](CCCCN)C(=O)N[C@@H](Cc1ccc(O)cc1)C(=O)N[C@@H](CCCCN)C(=O)N[C@H](C(=O)N[C@H](CCSC)C(N)=O)C(C)C [Peptide 19] (HELM PEPTIDE1{[CCCC(=O)[*:2]].M.K.Y.K.V.[dM].[am]}$$$$V2.0)	> 10	A (81%-100%)	B (61%-80%)	B (61%-80%)	< 0.01
CCCCCCCC(=O)N[C@@H](CCSC)C(=O)N[C@@H](CCCCN)C(=O)N[C@@H](Cc1ccc(O)cc1)C(=O)N[C@@H](CCCCN)C(=O)N[C@H](C(=O)N[C@H](CCSC)C(N)=O)C(C)C [Peptide 20] (HELM PEPTIDE1{[CCCCCCCC(=O)[*:2]].M.K.Y.K.V.[dM].[am]}$$$$V2.0)	> 10	B (61%-80%)	B (61%-80%)	B (61%-80%)	0.011 to 0.1
CSCC[C@H](NC(=O)[C@@H](N)CCCNC(=N)N)C(=O)N[C@@H](CCCNC(=N)N)C(=O)N[C@@H](Cc1ccc(O)cc1)C(=O)N[C@@H](CCCCN)C(=O)N[C@@H](Cc1ccc(O)cc1)C(=O)N[C@H](CCSC)C(N)=O [Peptide 38] (HELM PEPTIDE1{R.M.R.Y.K.Y.[dM].[am]}$$$$V2.0)	> 10	A (81%-100%)	C (41%-60%)	B (61%-80%)	< 0.01
CSCC[C@H](NC(=O)[C@H](CCCNC(=N)N)NC(C)=O)C(=O)N[C@@H](CCCNC(=N)N)C(=O)N[C@@H](Cc1ccc(O)cc1)C(=O)N[C@@H](CCCCN)C(=O)N[C@@H](Cc1ccc(O)cc1)C(=O)N[C@H](CCSC)C(N)=O [Peptide 39] (HELM PEPTIDE1{[ac].R.M.R.Y.K.Y.[dM].[am]}$$$$V2.0)	> 10	B (61%-80%)	D (21%-40%)	B (61%-80%)	0.011 to 0.1
CCCCCCCC(=O)N[C@@H](CCCNC(=N)N)C(=O)N[C@@H](CCSC)C(=O)N[C@@H](CCCNC(=N)N)C(=O)N[C@@H](Cc1ccc(O)cc1)C(=O)N[C@@H](CCCCN)C(=O)N[C@@H](Cc1ccc(O)cc1)C(=O)N[C@H](CCSC)C(N)=O [Peptide 40] (HELM PEPTIDE1{[CCCCCCCC(=O)[*:2]].R.M.R.Y.K.Y.[dM].[am]}$$$$V2.0)	> 10	A (81%-100%)	C (41%-60%)	B (61%-80%)	0.011 to 0.1
CSCC[C@H](NC(C)=O)C(=O)N[C@@H](CCCNC(=N)N)C(=O)N[C@@H](Cc1ccc(O)cc1)C(=O)N[C@@H](CCCCN)C(=O)N1CCC[C@H]1C(=O)N[C@H](CCSC)C(N)=O [Peptide 55] (HELM PEPTIDE1{[ac].M.R.Y.K.P.[dM].[am]}$$$$V2.0)	> 10	A (81%-100%)	B (61%-80%)	B (61%-80%)	< 0.01
CCCCCCCC(=O)N[C@@H](CCCCN)C(=O)N[C@@H](CCSC)C(=O)N[C@@H](CCCCN)C(=O)N[C@@H](Cc1ccc(O)cc1)C(=O)N[C@@H](CCCCN)C(=O)N1CCC[C@H]1C(=O)N[C@H](CCSC)C(N)=O [Peptide 69] (HELM PEPTIDE1{[CCCCCCCC(=O)[*:2]].K.M.K.Y.K.P.[dM].[am]}$$$$V2.0)	> 10	A (81%-100%)	C (41%-60%)	B (61%-80%)	0.011 to 0.1
CSCC[C@H](N)C(=O)N[C@@H](CCCCN)C(=O)N[C@@H](Cc1ccc(O)cc1)C(=O)N[C@@H](CCCCN)C(=O)N1CCC[C@H]1C(=O)N[C@H](CCSC)C(N)=O [Peptide 70] (HELM PEPTIDE1{M.K.Y.K.P.[dM].[am]}$$$$V2.0)	> 10	A (81%-100%)	D (21%-40%)	C (41%-60%)	< 0.01
CSCC[C@H](NC(C)=O)C(=O)N[C@@H](CCCCN)C(=O)N[C@@H](Cc1ccc(O)cc1)C(=O)N[C@@H](CCCCN)C(=O)N1CCC[C@H]1C(=O)N[C@H](CCSC)C(N)=O [Peptide 71] (HELM PEPTIDE1{[ac].M.K.Y.K.P.[dM].[am]}$$$$V2.0)	> 10	A (81%-100%)	C (41%-60%)	C (41%-60%)	0.011 to 0.1
CCCC(=O)N[C@@H](CCSC)C(=O)N[C@@H](CCCCN)C(=O)N[C@@H](Cc1ccc(O)cc1)C(=O)N[C@@H](CCCCN)C(=O)N1CCC[C@H]1C(=O)N[C@H](CCSC)C(N)=O [Peptide 72] (HELM PEPTIDE1{[CCCC(=O)[*:2]].M.K.Y.K.P.[dM].[am]}$$$$V2.0)	> 10	B (61%-80%)	D (21%-40%)	B (61%-80%)	0.011 to 0.1
